Measured values: patent publication US12655160B2, “KRAS G12D inhibitors” (Mirati Therapeutics, Inc., priority 2020, dated 2026)
pIC50: −log10 of the molar value. Structures can show the parent of a compound that is named as a salt.

Target: KRas G12D (Homo sapiens, UniProt P01116, G12D)
Assay: KRas G12D Binding Assay (TR-FRET displacement of labeled tracer)
Parameters: corresponding to amino acids 1:169, produced at Array BioPharma Inc; biotin (biotinylated)
Conditions: TR-FRET displacement of Cy5 labelled tracer, Biotinylated GDP-loaded KRAS G12D (amino acids 1:169), 60 minute incubation at 22° C.
Method: This Example illustrates that exemplary compounds of the present invention bind to KRas G12D and are capable of displacing a labeled tracer ligand occupying the KRas G12D binding site. The ability of a compound to bind to KRAS G12D was measured using a TR-FRET displacement assay. Biotinylated GDP-loaded recombinant human KRAS G12D (corresponding to amino acids 1:169, produced at Array BioPharma Inc.) was incubated with a custom-made Cy5 labelled tracer, europium labelled streptavidin and compound (2% DMSO final) in buffer (50 mM HEPES [pH 7.5], 5 mM MgCl2, 0.005% Tween-20 & 1 mM DTT). After a 60 minute incubation at 22° C., the reaction was measured using a PerkinElmer EnVision multimode plate reader via TR-FRET dual wavelength detection, and the percent of control (POC) calculated using a ratiometric emission factor. […] The POC values were fit to a 4-parameter logistic curve and the IC50 value was determined as the concentration where the curve crosses 50 POC.

Chain of KRas G12D (P01116 1-169 isoform P01116-2 G12D): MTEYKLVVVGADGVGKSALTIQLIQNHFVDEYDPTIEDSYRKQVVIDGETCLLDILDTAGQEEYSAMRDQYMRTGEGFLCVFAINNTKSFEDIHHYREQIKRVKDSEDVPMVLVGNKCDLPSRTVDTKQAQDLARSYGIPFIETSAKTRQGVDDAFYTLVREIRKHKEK

Compound | pIC50
CN(C)C1(CNc2nc(OCCc3nccn3C)nc3c(F)c(-c4cc(O)cc5ccccc45)ncc23)CCC1 [Example 31] | 6.07
Oc1cc(-c2ncc3c(NC[C@]45C[C@H]4CCN5)nc(OC[C@@]45CCCN4C[C@H](F)C5)nc3c2F)c2ccccc2c1 [Example 40, 4-(4-((((1S,5R)-2-azabicyclo[3.1.0]hexan-1-yl)methyl)amino)-8-fluoro-2-(((2R,7aS)-2-fluorotetrahydro-1H-pyrrolizin-7a(5H)-yl)methoxy)pyrido[4,3-d]pyrimidin-7-yl)naphthalen-2-ol bis(2,2,2-trifluoroacetate)] | 5.29
CN(C)C1(CNc2nc(OC[C@@]34CCCN3C[C@H](F)C4)nc3c(F)c(-c4cc(O)cc5ccccc45)ncc23)CCOCC1 [Example 41, 4-(4-(((4-(dimethylamino)tetrahydro-2H-pyran-4-yl)methyl)amino)-8-fluoro-2-(((2R,7aS)-2-fluorotetrahydro-1H-pyrrolizin-7a(5H)-yl)methoxy)pyrido[4,3-d]pyrimidin-7-yl)naphthalen-2-ol bis(2,2,2-trifluoroacetate)] | 6.16
CC(C)c1c(Cl)cccc1-c1ncc2c(NCC3(N(C)C)CCC3)nc(OCC34CCCN3CCC4)nc2c1F [Example 47, 7-(3-chloro-2-isopropylphenyl)-N-((1-(dimethylamino)cyclobutyl)methyl)-8-fluoro-2-((tetrahydro-1H-pyrrolizin-7a(5H)-yl)methoxy)pyrido[4,3-d]pyrimidin-4-amine] | 6.29
CC(C)c1c(Cl)cccc1-c1ncc2c(NCC3(N(C)C)CCC3)nc(OC[C@@]34CCCN3C[C@H](F)C4)nc2c1F [Example 48, 7-(3-chloro-2-isopropylphenyl)-N-((1-(dimethylamino)cyclobutyl)methyl)-8-fluoro-2-(((2R,7aS)-2-fluorotetrahydro-1H-pyrrolizin-7a(5H)-yl)methoxy)pyrido[4,3-d]pyrimidin-4-amine] | 5.97
CN(C)C1(CNc2nc(OCC34CCCN3CCC4)nc3c(F)c(-c4cccc5cccc(F)c45)ncc23)CCOCC1 [Example 53, N-((4-(dimethylamino)tetrahydro-2H-pyran-4-yl)methyl)-8-fluoro-7-(8-fluoronaphthalen-1-yl)-2-((hexahydro-1H-pyrrolizin-7a-yl)methoxy)pyrido[4,3-d]pyrimidin-4-amine] | 5.15
CN(C)C(C)(C)CNc1nc(OCC23CCCN2CCC3)nc2c(F)c(-c3cccc4cccc(Cl)c34)ncc12 [Example 55, N^1-(7-(8-chloronaphthalen-1-yl)-8-fluoro-2-((hexahydro-1H-pyrrolizin-7a-yl)methoxy)pyrido[4,3-d]pyrimidin-4-yl)-N^2,N^2,2-trimethylpropane-1,2-diamine] | 6.03
CN(CC1(N(C)C)CCC1)c1nc(OCC23CCCN2CCC3)nc2c(F)c(-c3cccc4cccc(F)c34)ncc12 [Example 58, N-((1-(dimethylamino)cyclobutyl)methyl)-8-fluoro-7-(8-fluoronaphthalen-1-yl)-2-((hexahydro-1H-pyrrolizin-7a-yl)methoxy)-N-methylpyrido[4,3-d]pyrimidin-4-amine] | 5.04
CNC1(CNc2nc(OCC34CCCN3CCC4)nc3c(F)c(-c4cccc5cccc(F)c45)ncc23)CCC1 [Example 59, 8-fluoro-7-(8-fluoronaphthalen-1-yl)-2-((hexahydro-1H-pyrrolizin-7a-yl)methoxy)-N-((1-(methylamino)cyclobutyl)methyl)pyrido[4,3-d]pyrimidin-4-amine] | 5.99
NC1(CNc2nc(OCC34CCCN3CCC4)nc3c(F)c(-c4cccc5cccc(F)c45)ncc23)CCC1 [Example 60, N-((1-aminocyclobutyl)methyl)-8-fluoro-7-(8-fluoronaphthalen-1-yl)-2-((hexahydro-1H-pyrrolizin-7a-yl)methoxy)pyrido[4,3-d]pyrimidin-4-amine] | 5.67

Now those with a higher pIC50, led by results:

pIC50 | Compound
6.42 | CN1CCC[C@@H]1COc1nc(NCC2(N(C)C)CCC2)c2cnc(-c3cc(O)cc4ccccc34)c(F)c2n1 [Example 32]
9.05 | CCc1cccc2cc(O)cc(-c3ncc4c(NCC5(N(C)C)CCC5)nc(OC[C@@]56CCCN5C[C@H](F)C6)nc4c3F)c12 [Example 33, 4-(4-(((1-(dimethylamino)cyclobutyl)methyl)amino)-8-fluoro-2-(((2R,7aS)-2-fluorotetrahydro-1H-pyrrolizin-7a(5H)-yl)methoxy)pyrido[4,3-d]pyrimidin-7-yl)-5-ethylnaphthalen-2-ol dihydrochloride]
8.96 | CCc1cccc2cc(O)cc(-c3ncc4c(NCC5(N(C)C)CCCC5)nc(OC[C@@]56CCCN5C[C@H](F)C6)nc4c3F)c12 [Example 34, 4-(4-(((1-(dimethylamino)cyclopentyl)methyl)amino)-8-fluoro-2-(((2R,7aS)-2-fluorotetrahydro-1H-pyrrolizin-7a(5H)-yl)methoxy)pyrido[4,3-d]pyrimidin-7-yl)-5-ethylnaphthalen-2-ol dihydrochloride]
7.52 | CCc1c(F)ccc2cccc(-c3ncc4c(NCC5(N(C)C)CCC5)nc(OCC56CCCN5CCC6)nc4c3F)c12 [Example 35, N-((1-(dimethylamino)cyclobutyl)methyl)-7-(8-ethyl-7-fluoronaphthalen-1-yl)-8-fluoro-2-((tetrahydro-1H-pyrrolizin-7a(5H)-yl)methoxy)pyrido[4,3-d]pyrimidin-4-amine bis(2,2,2-trifluoroacetate)]
7.58 | CCc1cccc2cc(O)cc(-c3ncc4c(N(C)CC5(N(C)C)CCC5)nc(OC[C@@]56CCCN5C[C@H](F)C6)nc4c3F)c12 [Example 37, 4-(4-(((1-(dimethylamino)cyclobutyl)methyl)(methyl)amino)-8-fluoro-2-(((2R,7aS)-2-fluorotetrahydro-1H-pyrrolizin-7a(5H)-yl)methoxy)pyrido[4,3-d]pyrimidin-7-yl)-5-ethylnaphthalen-2-ol dihydrochloride]
6.41 | Oc1cc(-c2ncc3c(NCC4(O)CNC4)nc(OC[C@@]45CCCN4C[C@H](F)C5)nc3c2F)c2ccccc2c1 [Example 38, 3-(((8-fluoro-2-(((2R,7aS)-2-fluorotetrahydro-1H-pyrrolizin-7a(5H)-yl)methoxy)-7-(3-hydroxynaphthalen-1-yl)pyrido[4,3-d]pyrimidin-4-yl)amino)methyl)azetidin-3-ol bis(2,2,2-trifluoroacetate)]
6.68 | CN(C)C(C)(C)CNc1nc(OC[C@]23CCCN2C[C@@H](F)C3)nc2c(F)c(-c3cc(O)cc4ccccc34)ncc12 [Example 42, 4-(4-((2-(dimethylamino)-2-methylpropyl)amino)-8-fluoro-2-(((2S,7aR)-2-fluorotetrahydro-1H-pyrrolizin-7a(5H)-yl)methoxy)pyrido[4,3-d]pyrimidin-7-yl)naphthalen-2-ol bis(2,2,2-trifluoroacetate)]
6.64 | CN(C)C1(CNc2nc(OC[C@]34CCCN3[C@@H](COC(=O)N3CCCC3)CC4)nc3c(F)c(-c4cccc5cccc(Cl)c45)ncc23)CCC1 [Example 49, ((3R,7aR)-7a-(((7-(8-chloronaphthalen-1-yl)-4-(((1-(dimethylamino)cyclobutyl)methyl)amino)-8-fluoropyrido[4,3-d]pyrimidin-2-yl)oxy)methyl)hexahydro-1H-pyrrolizin-3-yl)methyl pyrrolidine-1-carboxylate]
8.96 | CCc1c(F)ccc2cc(O)cc(-c3ncc4c(NCC5(N(C)C)CCC5)nc(OC[C@@]56CCCN5C[C@H](F)C6)nc4c3F)c12 [Example 57, 4-(4-(((1-(dimethylamino)cyclobutyl)methyl)amino)-8-fluoro-2-(((2R,7aS)-2-fluorohexahydro-1H-pyrrolizin-7a-yl)methoxy)pyrido[4,3-d]pyrimidin-7-yl)-5-ethyl-6-fluoronaphthalen-2-ol]
6.32 | CN(C)C1(CNc2nc(OCC34CCCN3CCC4)nc3c(F)c(-c4cccc5cccc(F)c45)ncc23)CCCC1 [Example 61, N-((1-(dimethylamino)cyclopentyl)methyl)-8-fluoro-7-(8-fluoronaphthalen-1-yl)-2-((hexahydro-1H-pyrrolizin-7a-yl)methoxy)pyrido[4,3-d]pyrimidin-4-amine]
6.69 | NC1CC(Nc2nc(OCC34CCCN3CCC4)nc3c(F)c(-c4cccc5cccc(F)c45)ncc23)C12CCC2 (stereo not drawn) [Example 62, N^1-(8-fluoro-7-(8-fluoronaphthalen-1-yl)-2-((hexahydro-1H-pyrrolizin-7a-yl)methoxy)pyrido[4,3-d]pyrimidin-4-yl)spiro[3.3]heptane-1,3-diamine]
